The record followed here is patent US20030036111A1, “Mitochondrial protein” (priority 2001, published 2003).

Holding throughout (assay type): biochemical
For experiment [1], the target named is T1, human DNC (mitochondrial deoxynucleotide carrier) (Homo sapiens, UniProt Q9HC21).
T1 construct: Amino acids are numbered from 1-320; made in house; host or cells: E. coli BL21(DE3), pET21b; inclusion bodies solubilized in sarkosyl, Ni-NTA purified
T1 sequence (Q9HC21 2-320 limits assumed): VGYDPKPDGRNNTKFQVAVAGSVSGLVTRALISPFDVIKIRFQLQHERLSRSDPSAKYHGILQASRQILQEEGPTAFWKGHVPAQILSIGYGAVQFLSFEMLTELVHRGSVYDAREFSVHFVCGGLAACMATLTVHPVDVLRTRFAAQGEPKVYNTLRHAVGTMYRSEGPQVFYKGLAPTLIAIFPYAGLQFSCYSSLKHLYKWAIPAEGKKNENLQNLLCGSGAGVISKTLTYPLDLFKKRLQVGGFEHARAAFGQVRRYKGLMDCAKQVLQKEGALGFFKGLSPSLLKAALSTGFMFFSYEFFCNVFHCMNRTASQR
Briefly: Kinetics of [α-35S]dATP/ADP exchange in proteoliposomes reconstituted with recombinant DNC. Conditions: for Km: external substrate, internal ADP or dADP 10 mM, read-out: transport affinity (Km). The method, then: (§1) FIG. 3. Time course of dATP/ADP exchange and substrate specificity of human DNC. (a) Time course of [α-35 S]dATP/ADP exchange in proteoliposomes reconstituted with the recombinant DNC. [α-35 S]dATP (1 mM) was added to proteoliposomes containing 10 mM ADP (⋄) or 10 mM NaCl (∇). (b) Dependence of DNC activity on internal substrate. Proteoliposomes were preloaded internally with various substrates (concentration 10 mM). Trans-port was started by addition of […] [α-35 S]dATP and stopped after 2 min. The values are means 6 SD of at least three experiments. (c) Inhibition of the rate of [α-35 S]dATP uptake by external substrates. Proteoliposomes were preloaded internally with 10 mM ADP. Transport was started by adding 125 mM [α-35 S]dATP and stopped after 2 min. External substrates (concentration 0.5 mM) were added together with [α-35 S]dATP. The extents of inhibition (%) from a representative experiment are reported. The control value for uninhibited exchange was 0.45 mmol/min per gram of protein.
The recombinant protein in sarkosyl was reconstituted into liposomes in the presence of substrates (10). Both cardiolipin (1.14 mg/ml) and EDTA (1 mM) were added. Transport was measured at 25° C. with internal and external pHs at 6.8. It was started by adding [α-35S]dATP or [^14C]-ADP and terminated after 2 min by addition of 100 mM of p-chloromercuribenzene sulfonate (10). Entrapped radioactivity was counted (10). The initial transport rate was calculated from the radioactivity taken up by proteoliposomes within 2 min (in the initial linear range). Other transport activities were assayed similarly (10). The amount of DNC incorporated into liposomes was measured as described (11) and varied between 15 and 20% of the protein added to the reconstitution mixture.

Experiment [2] addresses T1, human DNC (mitochondrial deoxynucleotide carrier). The experiment can be described thus: Dependence of DNC activity ([α-35S]dATP uptake) on internal substrate. Conditions: internal substrate 10 mM; 2 min. The method, then:
as §1, with “Transport was started by adding 125 mM [α-35 S]dATP and stopped after 2 min.” left out, “reported.” for “reported. The control value for uninhibited exchange was 0.45 mmol/min per gram of protein.”
(§2) The recombinant protein in sarkosyl was reconstituted into liposomes in the presence of substrates (10). […] Transport was measured at 25° C. with internal and external pHs at 6.8. It was started by adding [α-35S]dATP or [^14C]-ADP and terminated after 2 min by addition of 100 mM of p-chloromercuribenzene sulfonate (10). Entrapped radioactivity was counted (10). The initial transport rate was calculated from the radioactivity taken up by proteoliposomes within 2 min (in the initial linear range). Other transport activities were assayed similarly (10).

The target is the same in experiment [3]. The experiment can be described thus: Inhibition of [α-35S]dATP uptake (dATP/ADP exchange) by external substrates and carrier inhibitors. Conditions: external substrates 0.5 mM; internal 10 mM ADP; 125 mM [α-35 S]dATP; 2 min. On the procedure:
as §1, with “reported.” for “reported. The control value for uninhibited exchange was 0.45 mmol/min per gram of protein.”
The recombinant protein in sarkosyl was reconstituted into liposomes in the presence of substrates (10). Both cardiolipin (1.14 mg/ml) and EDTA (1 mM) were added. Transport was measured at 25° C. with internal and external pHs at 6.8. It was started by adding [α-35S]dATP or [^14C]-ADP and terminated after 2 min by addition of 100 mM of p-chloromercuribenzene sulfonate (10). Entrapped radioactivity was counted (10). The initial transport rate was calculated from the radioactivity taken up by proteoliposomes within 2 min (in the initial linear range). Other transport activities were assayed similarly (10).

The target is the same in experiment [4]. Briefly: Homo-exchange of other carrier substrates in DNC proteoliposomes. Conditions: internal concentration 10 mM; external concentration 1 mM. On the procedure: as §2
For experiment [5] the target is unchanged. Briefly: Inhibition of [α-35S]dATP uptake (dATP/ADP exchange) by external substrates and carrier inhibitors. Conditions: inhibitor 10 mM; internal 10 mM ADP; 2 min.

With `Nc1ncnc2c1ncn2[C@@H]1O[C@H](COP(=O)(O)OP(=O)(O)O)[C@@H](O)[C@H]1O` [ADP], in experiment [1], the Km (in general, the substrate concentration at which the rate is half of its maximum) was found to be 42.6 ± 4.7 µM. Also, the “rate of [α-35 S]dATP uptake into proteoliposomes with internal substrate” value (“rate … with internal substrate” for short) in experiment [2] is on record as “highest rates”.

On to `Nc1ncnc2nc[nH]c12` [adenine], for which the “rate … with internal substrate” value in experiment [2] is listed as “virtually no activity”. For the same compound, the “effect of external substrate on [α-35 S]dATP/ADP exchange” value (“effect … [α-35 S]dATP/ADP exchange” for short) in experiment [3] is given as “no effect”.

Regarding `Nc1ncnc2c1ncn2[C@@H]1O[C@H](CO)[C@@H](O)[C@H]1O` [adenosine], the “rate … with internal substrate” value in experiment [2] is “virtually no activity”. For the same compound, the “effect … [α-35 S]dATP/ADP exchange” value in experiment [3] was “no effect”.

In the case of `C[N+](C)(C)CC(O)CC(=O)[O-]` (stereo not drawn) [carnitine], the “homo-exchange catalysed by reconstituted DNC” value (“homo-exchange catalysed” for short) in experiment [4] is given as “did not catalyse”. In experiment [2], the “rate … with internal substrate” value was “virtually no activity”.

Turning to `Nc1ccn([C@@H]2O[C@H](CO)[C@@H](O)[C@H]2O)c(=O)n1` [cytidine], in experiment [2], the “rate … with internal substrate” value is “virtually no activity”. The “effect … [α-35 S]dATP/ADP exchange” value in experiment [3] is given as “no effect”.

In the case of `Nc1cc[nH]c(=O)n1` [cytosine], in experiment [2], the “rate … with internal substrate” value was “virtually no activity”. For the same compound, in experiment [3], the “effect … [α-35 S]dATP/ADP exchange” value is listed as “no effect”.

Turning to `Nc1ncnc2c1ncn2[C@H]1C[C@H](O)[C@@H](COP(=O)(O)OP(=O)(O)OP(=O)(O)O)O1` [dATP], the Km in experiment [1] amounted to 106 ± 15 µM. In experiment [1] (reconstituted human DNC, 25° C., pH 6.8), the “rate constant of exchange of [α-35 S]dATP for dADP or ADP (first-order kinetics)” value was 0.02 min⁻¹.

For `Nc1ncnc2c1ncn2[C@H]1C[C@H](O)[C@@H](CO)O1` [deoxyadenosine], the “rate … with internal substrate” value in experiment [2] was “virtually no activity”. The “effect … [α-35 S]dATP/ADP exchange” value in experiment [3] is given as “no effect”.

For `Nc1ccn([C@H]2C[C@H](O)[C@@H](CO)O2)c(=O)n1` [deoxycytidine], the “rate … with internal substrate” value in experiment [2] is given as “virtually no activity”. The “effect … [α-35 S]dATP/ADP exchange” value in experiment [3] was “no effect”.

`Nc1nc2c(ncn2[C@H]2C[C@H](O)[C@@H](CO)O2)c(=O)[nH]1` [deoxyguanosine]: in experiment [2], the “rate … with internal substrate” value is reported as “virtually no activity”. The “effect … [α-35 S]dATP/ADP exchange” value in experiment [3] was “no effect”.

In the case of `Cc1cn([C@H]2C[C@H](O)[C@@H](CO)O2)c(=O)[nH]c1=O` [deoxythymidine], the “rate … with internal substrate” value in experiment [2] is “virtually no activity”. For the same compound, in experiment [3], the “effect … [α-35 S]dATP/ADP exchange” value is recorded as “no effect”.

As for `O=c1ccn([C@H]2C[C@H](O)[C@@H](CO)O2)c(=O)[nH]1` [deoxyuridine], the “rate … with internal substrate” value in experiment [2] is “virtually no activity”. The “effect … [α-35 S]dATP/ADP exchange” value in experiment [3] is reported as “no effect”.

Regarding `O=C(O)/C=C/C(=O)O` [fumarate], the “homo-exchange catalysed” value in experiment [4] was “did not catalyse”.

On to `N[C@@H](CCC(=O)O)C(=O)O` [glutamate], for which, in experiment [4], the “homo-exchange catalysed” value is “did not catalyse”.

Consider `NC(=O)CC[C@H](N)C(=O)O` [glutamine], for which, in experiment [4], the “homo-exchange catalysed” value is listed as “did not catalyse”.

For the compound `Nc1nc2nc[nH]c2c(=O)[nH]1` [guanine], the “rate … with internal substrate” value in experiment [2] is listed as “virtually no activity”. Also, the “effect … [α-35 S]dATP/ADP exchange” value in experiment [3] is “no effect”.

On to `Nc1nc2c(ncn2[C@@H]2O[C@H](CO)[C@@H](O)[C@H]2O)c(=O)[nH]1` [guanosine], for which, in experiment [2], the “rate … with internal substrate” value is “virtually no activity”. Further, the “effect … [α-35 S]dATP/ADP exchange” value in experiment [3] was “no effect”.

For `O=C(O)CC(O)C(=O)O` (stereo not drawn) [malate], in experiment [4], the “homo-exchange catalysed” value is “did not catalyse”.

On to `NCCC[C@H](N)C(=O)O` [ornithine], for which the “homo-exchange catalysed” value in experiment [4] is “did not catalyse”.

For the compound `O=C(O)CCC(=O)C(=O)O` [oxoglutarate], the “homo-exchange catalysed” value in experiment [4] is reported as “did not catalyse”. In addition, the “rate … with internal substrate” value in experiment [2] is recorded as “virtually no activity”.

On to `Cc1ncc(COP(=O)(O)O)c(C=O)c1O` [pyridoxal 5′-phosphate], for which, in experiment [5], the “inhibition of uptake of [α-35 S]dATP” value is recorded as “completely”.

`Cc1c[nH]c(=O)[nH]c1=O` [thymine]: the “rate … with internal substrate” value in experiment [2] is “virtually no activity”. In addition, in experiment [3], the “effect … [α-35 S]dATP/ADP exchange” value is on record as “no effect”.

As to `O=c1cc[nH]c(=O)[nH]1` [uracil], the “rate … with internal substrate” value in experiment [2] was “virtually no activity”. For the same compound, the “effect … [α-35 S]dATP/ADP exchange” value in experiment [3] was “no effect”.

On to `O=c1ccn([C@@H]2O[C@H](CO)[C@@H](O)[C@H]2O)c(=O)[nH]1` [uridine], for which, in experiment [2], the “rate … with internal substrate” value is “virtually no activity”. For the same compound, the “effect … [α-35 S]dATP/ADP exchange” value in experiment [3] is listed as “no effect”.
